From patent US20070270459A1, “Overactive bladder treating drug” (ASTELLAS PHARMA INC., priority 2002, published 2007)
Counter-ions that a name gives are not always drawn.

Tested on: overactive bladder model rat
Assay: Cystometry under nonanesthesized condition in overactive bladder model (BOO) rats
Format: in vivo
Source text: (1) Preparation of Overactive Bladder Model Rats
Wistar female rats (6 to 7 weeks old) were employed for the preparation. A catheter was inserted into the urinary bladder through the external urethral orifice under anesthesia with sodium pentobarbital in rats. After subjecting the abdominal region to the median section, the proximal urethra was ligated together with the catheter at 2 sites by a silk blade (5-0), and the catheter was removed.
(2) Cystometry Under Nonanesthesized Condition
At more than 6 weeks after surgery, the silk blade used for ligation of the urethra was removed under anesthesia with sodium pentobarbital. A catheter for infusion of physiological saline and for the measurement of the intravesical pressure was inserted into the urinary bladder through the top part of the urinary bladder and fixed. A catheter for administration of a drug was inserted into the jugular vein, and the rat was returned to a housing cage after recovery. At 2 days after surgery, the catheter inserted into the urinary bladder was connected to a syringe pump for continuous infusion of physiological saline (7-20 mL/hr) to induce the micturition reflex and to a pressure transducer to measure the intravesical pressure with a three way stopcock. After the micturition reflex was stabilized, physiological saline or a drug was administered through the catheter for administration of a drug inserted into the jugular vein.
As the parameters evaluated, the frequency of contraction before micturition (the number of contractions for 10 min before starting of micturition), contraction pressure (mean contraction pressure for 10 min before starting of micturition), micturition pressure and interval of micturition were employed for the present test. The effect of a drug was evaluated on the basis of the inhibition ratio against the pre-dosing values (prolongation ratio in the micturition interval).
Tamsulosin hydrochloride was administered intravenously in increasing the doses at a common ratio of about 3 (1, 3 and 10 μg/kg). The action of tamsulosin hydrochloride (3 μg/kg) in combination with Solifenacin succinate (3 mg/kg) on each parameter was also evaluated.
Each test was performed at n=5, and the results are expressed as mean±standard error. Student's t-test and Tukey's test were used for comparison between 2 groups and among multiple groups, respectively.

SMILES	interval of micturition, prolongation ratio (3 mg/kg i.v., alone) [%]	interval of micturition, prolongation ratio (3 μg/kg i.v., alone) [%]	micturition pressure (10 μg/kg intravenous)	interval of micturition, prolongation ratio (10 μg/kg intravenous, vs pre-dosing value) [%]	frequency of contraction before micturition (number of contractions for 10 min before starting of micturition) (tamsulosin hydrochloride 1, 3 and 10 μg/kg intravenous, vs pre-dosing values, n=5, FIG. 1A)	contraction pressure before micturition (mean contraction pressure for 10 min before starting of micturition) (tamsulosin hydrochloride 1, 3 and 10 μg/kg intravenous, vs pre-dosing values, n=5, FIG. 1B)	micturition pressure (tamsulosin hydrochloride alone, comparison arm of the combination test (3 μg/kg i.v.))
O=C(O[C@H]1CN2CCC1CC2)N1CCc2ccccc2[C@@H]1c1ccccc1 [solifenacin succinate, (+)-(1S,3′R)-quinuclidin-3′-yl 1-phenyl-1,2,3,4-tetrahydroisoquinoline-2-carboxylate]	2.6						
CCOc1ccccc1OCCN[C@H](C)Cc1ccc(OC)c(S(N)(=O)=O)c1 [tamsulosin hydrochloride, (R)(−)-5-[2-[[2-(o-ethoxyphenoxy)ethyl]amino]propyl]-2-methoxybenzene-sulfonamide]		2.1	no influence	9.2	inhibited in a dose-dependent manner	inhibited in a dose-dependent manner	no effect
